Experimental data: ChEMBL document CHEMBL1149520, “Cyclopentane-based human NK1 antagonists. Part 1: discovery and initial SAR” (Bioorg Med Chem Lett, 2006)
Converted amounts (≈) assume the structure as drawn.

Key:
physchem = conditions: sodium acetate/acetic acid buffer, pH 5
Substance-P receptor = Substance-P receptor (Homo sapiens, UniProt P25103); assay: biochemical
[1] = Dissociation constant, pKa of the compound; type: physicochemical
[2] = Solubility in potassium hydrogen phosphate buffer at pH 5; type: physicochemical
Cavia porcellus = species: Cavia porcellus; assay: animal or person; conditions: Plasma, po, read-out: Inhibition
[3] = Bioavailability in orally dosed rat; type: ADME, organism-based; conditions: in vivo, po
[4] = Bioavailability in orally dosed dog; type: ADME, organism-based, Canis lupus familiaris; conditions: in vivo, po

Substance-P receptor, sequence (P25103 whole entry): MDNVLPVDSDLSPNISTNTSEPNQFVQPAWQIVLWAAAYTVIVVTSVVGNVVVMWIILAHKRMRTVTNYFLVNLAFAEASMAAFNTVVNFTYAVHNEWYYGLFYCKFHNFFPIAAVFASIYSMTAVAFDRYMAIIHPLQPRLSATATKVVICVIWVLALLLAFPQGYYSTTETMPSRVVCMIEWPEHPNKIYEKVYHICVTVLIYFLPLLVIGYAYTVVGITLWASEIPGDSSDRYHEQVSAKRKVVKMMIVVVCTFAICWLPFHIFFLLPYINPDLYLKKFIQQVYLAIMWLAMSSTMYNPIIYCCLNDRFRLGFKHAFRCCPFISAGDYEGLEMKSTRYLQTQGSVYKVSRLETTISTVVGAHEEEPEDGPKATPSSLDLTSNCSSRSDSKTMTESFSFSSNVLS

CN(C[C@@H]1CCC(=O)N1)[C@@H]1CC[C@H](OCc2cc(C(F)(F)F)cc(C(F)(F)F)c2)[C@H]1c1ccccc1
solubility (physchem): 510 µg/mL (≈ 991 µM)
IC50 (Substance-P receptor): 0.81 nM

O=C1CC[C@@H](CN[C@H]2CC[C@@H](OCc3cc(C(F)(F)F)cc(C(F)(F)F)c3)[C@@H]2c2ccccc2)N1
IC50 (Substance-P receptor): 260 nM

O=C1CC[C@@H](CN[C@@H]2CC[C@H](OCc3cc(C(F)(F)F)cc(C(F)(F)F)c3)[C@H]2c2ccccc2)N1
solubility (physchem): 4000 µg/mL (≈ 7990 µM)
IC50 (Substance-P receptor): 1.5 nM

O=c1[nH]nc(CN2CCO[C@H](OCc3cc(C(F)(F)F)cc(C(F)(F)F)c3)[C@@H]2c2ccccc2)[nH]1
pKa [1]: < 3.5
solubility [2]: 3 µg/mL (≈ 5.97 µM)

CNC[C@@H]1CC[C@H](OCc2cc(C(F)(F)F)cc(C(F)(F)F)c2)[C@H]1c1ccccc1 (racemic)
IC50 (Substance-P receptor): 1.9 nM

CN(Cc1n[nH]c(=O)[nH]1)C[C@@H]1CC[C@H](OCc2cc(C(F)(F)F)cc(C(F)(F)F)c2)[C@H]1c1ccccc1 (racemic)
solubility (physchem): 200 µg/mL (≈ 378 µM)
IC50 (Substance-P receptor): 2 nM

COC(=O)N[C@H]1CC[C@H](OCc2cc(C(F)(F)F)cc(C(F)(F)F)c2)[C@@H]1c1ccccc1 (racemic)
IC50 (Substance-P receptor): 5.3 nM

CN(Cc1nnc[nH]1)[C@@H]1CC[C@H](OCc2cc(C(F)(F)F)cc(C(F)(F)F)c2)[C@H]1c1ccccc1 (racemic)
IC50 (Substance-P receptor): 1.1 nM

NC(=O)CNC[C@@H]1CC[C@H](OCc2cc(C(F)(F)F)cc(C(F)(F)F)c2)[C@H]1c1ccccc1 (racemic)
solubility (physchem): 590 µg/mL (≈ 1240 µM)
IC50 (Substance-P receptor): 1.9 nM

NC[C@@H]1CC[C@H](OCc2cc(C(F)(F)F)cc(C(F)(F)F)c2)[C@H]1c1ccccc1 (racemic)
IC50 (Substance-P receptor): 2.7 nM

O=C(N[C@H]1CC[C@H](OCc2cc(C(F)(F)F)cc(C(F)(F)F)c2)[C@@H]1c1ccccc1)OCc1ccccc1 (racemic)
IC50 (Substance-P receptor): 300 nM

NC(=O)CN[C@@H]1CC[C@H](OCc2cc(C(F)(F)F)cc(C(F)(F)F)c2)[C@H]1c1ccccc1 (racemic)
pKa [1]: 6.6
solubility (physchem): 1100 µg/mL (≈ 2390 µM)
IC50 (Substance-P receptor): 1.3 nM
inhibition in vivo at 1 mg/kg (Cavia porcellus): 60%

CN(CC(N)=O)C[C@@H]1CC[C@H](OCc2cc(C(F)(F)F)cc(C(F)(F)F)c2)[C@H]1c1ccccc1 (racemic)
solubility (physchem): 300 µg/mL (≈ 614 µM)
IC50 (Substance-P receptor): 1.9 nM

FC(F)(F)c1cc(CO[C@H]2CC[C@@H](CN3CCOCC3)[C@@H]2c2ccccc2)cc(C(F)(F)F)c1 (racemic)
IC50 (Substance-P receptor): 8.2 nM

COC(=O)N[C@@H]1CC[C@H](OCc2cc(C(F)(F)F)cc(C(F)(F)F)c2)[C@H]1c1ccccc1 (racemic)
IC50 (Substance-P receptor): 0.89 nM
inhibition in vivo at 1 mg/kg (Cavia porcellus): < 25%

CNC(=O)N[C@@H]1CC[C@H](OCc2cc(C(F)(F)F)cc(C(F)(F)F)c2)[C@H]1c1ccccc1 (racemic)
IC50 (Substance-P receptor): 2.7 nM

NC(=O)[C@@H]1CC[C@H](OCc2cc(C(F)(F)F)cc(C(F)(F)F)c2)[C@H]1c1ccccc1 (racemic)
IC50 (Substance-P receptor): 7.2 nM

OC[C@@H]1CC[C@H](OCc2cc(C(F)(F)F)cc(C(F)(F)F)c2)[C@H]1c1ccccc1 (racemic)
IC50 (Substance-P receptor): 0.77 nM

NC(=O)CN[C@H]1CC[C@H](OCc2cc(C(F)(F)F)cc(C(F)(F)F)c2)[C@@H]1c1ccccc1 (racemic)
solubility (physchem): 800 µg/mL (≈ 1740 µM)
IC50 (Substance-P receptor): 8.3 nM

FC(F)(F)c1cc(CO[C@H]2CC[C@@H](CN3CCCCC3)[C@@H]2c2ccccc2)cc(C(F)(F)F)c1 (racemic)
IC50 (Substance-P receptor): 5 nM

O=c1[nH]cc(CN[C@@H]2CC[C@H](OCc3cc(C(F)(F)F)cc(C(F)(F)F)c3)[C@H]2c2ccccc2)[nH]1 (racemic)
IC50 (Substance-P receptor): 5.2 nM

CN(CC[C@@H]1CC[C@H](OCc2cc(C(F)(F)F)cc(C(F)(F)F)c2)[C@H]1c1ccccc1)Cc1n[nH]c(=O)[nH]1 (racemic)
solubility (physchem): 10 µg/mL (≈ 18.4 µM)
IC50 (Substance-P receptor): 4.9 nM

COC(=O)N(C)[C@@H]1CC[C@H](OCc2cc(C(F)(F)F)cc(C(F)(F)F)c2)[C@H]1c1ccccc1 (racemic)
IC50 (Substance-P receptor): 6.2 nM

CN(Cc1n[nH]c(=O)[nH]1)C[C@H]1CC[C@H](OCc2cc(C(F)(F)F)cc(C(F)(F)F)c2)[C@@H]1c1ccccc1 (racemic)
solubility (physchem): 80 µg/mL (≈ 151 µM)
IC50 (Substance-P receptor): 4.7 nM

CN(C)C(=O)N[C@@H]1CC[C@H](OCc2cc(C(F)(F)F)cc(C(F)(F)F)c2)[C@H]1c1ccccc1 (racemic)
IC50 (Substance-P receptor): 5 nM

O=C(O)[C@@H]1CC[C@H](OCc2cc(C(F)(F)F)cc(C(F)(F)F)c2)[C@H]1c1ccccc1 (racemic)
IC50 (Substance-P receptor): 67 nM

CN(CC(N)=O)[C@H]1CC[C@H](OCc2cc(C(F)(F)F)cc(C(F)(F)F)c2)[C@@H]1c1ccccc1 (racemic)
IC50 (Substance-P receptor): 2.1 nM

NC(=O)N[C@H]1CC[C@H](OCc2cc(C(F)(F)F)cc(C(F)(F)F)c2)[C@@H]1c1ccccc1 (racemic)
IC50 (Substance-P receptor): 9.8 nM

CN(CC(N)=O)[C@@H]1CC[C@H](OCc2cc(C(F)(F)F)cc(C(F)(F)F)c2)[C@H]1c1ccccc1 (racemic)
pKa [1]: 5.8
solubility (physchem): 16 µg/mL (≈ 33.7 µM)
IC50 (Substance-P receptor): 2.7 nM

O=C(N[C@@H]1CC[C@H](OCc2cc(C(F)(F)F)cc(C(F)(F)F)c2)[C@H]1c1ccccc1)OCc1ccccc1 (racemic)
IC50 (Substance-P receptor): 40 nM

N[C@H]1CC[C@H](OCc2cc(C(F)(F)F)cc(C(F)(F)F)c2)[C@@H]1c1ccccc1 (racemic)
IC50 (Substance-P receptor): 7.9 nM

CN(C)C(=O)N(C)[C@@H]1CC[C@H](OCc2cc(C(F)(F)F)cc(C(F)(F)F)c2)[C@H]1c1ccccc1 (racemic)
IC50 (Substance-P receptor): 16 nM

NC(=O)N[C@@H]1CC[C@H](OCc2cc(C(F)(F)F)cc(C(F)(F)F)c2)[C@H]1c1ccccc1 (racemic)
IC50 (Substance-P receptor): 3.5 nM

CN[C@@H]1CC[C@H](OCc2cc(C(F)(F)F)cc(C(F)(F)F)c2)[C@H]1c1ccccc1 (racemic)
IC50 (Substance-P receptor): 0.83 nM

CN[C@H]1CC[C@H](OCc2cc(C(F)(F)F)cc(C(F)(F)F)c2)[C@@H]1c1ccccc1 (racemic)
IC50 (Substance-P receptor): 7.2 nM

N[C@@H]1CC[C@H](OCc2cc(C(F)(F)F)cc(C(F)(F)F)c2)[C@H]1c1ccccc1 (racemic)
IC50 (Substance-P receptor): 5.7 nM

NC(=O)CN[C@@H]1CC[C@H](OCc2cc(C(F)(F)F)cc(C(F)(F)F)c2)[C@H]1c1ccccc1 (relative stereo)
IC50 (Substance-P receptor): 0.95 nM

NC(=O)CN[C@H]1CC[C@@H](OCc2cc(C(F)(F)F)cc(C(F)(F)F)c2)[C@@H]1c1ccccc1 (relative stereo)
IC50 (Substance-P receptor): 45 nM

N[C@H]1CC[C@@H](OCc2cc(C(F)(F)F)cc(C(F)(F)F)c2)[C@@H]1c1ccccc1 (relative stereo)
IC50 (Substance-P receptor): 100 nM

N[C@@H]1CC[C@H](OCc2cc(C(F)(F)F)cc(C(F)(F)F)c2)[C@H]1c1ccccc1 (relative stereo)
IC50 (Substance-P receptor): 2.3 nM

C[C@@H](O[C@H]1OCCN(Cc2n[nH]c(=O)[nH]2)[C@H]1c1ccc(F)cc1)c1cc(C(F)(F)F)cc(C(F)(F)F)c1 [APREPITANT]
pKa [1]: < 3.5
bioavailability [3]: 53%
bioavailability [4]: 40%
solubility [2]: < 0.5 µg/mL
